Experimental data taken from patent publication US11331327B2, “Antibacterial use of halogenated salicylanilides” (UNION therapeutics A/S, priority 2014, dated 2022).
Converted amounts (≈) assume the structure as drawn.

Test system: S. aureus clinical isolates and S. aureus ATCC 29213
Assay: MIC assay according to CLSI criteria, Example 2, S. aureus strains
Format: cell-based, Staphylococcus aureus
Conditions: Staphylococcus aureus
How it was run: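 Wells received roughly 5×10^5 S. aureus cells taken in exponential growth, in cation-adjusted MH broth. Plates held aerobically at 37° C for 18 hours.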

C=C[C@]1(C)C[C@@H](OC(=O)CS[C@@H]2C[C@H]3CC[C@@H](C2)N3C)[C@]2(C)[C@H](C)CC[C@]3(CCC(=O)[C@H]32)[C@@H](C)[C@@H]1O [Retapamulin]
MIC (ATCC 29213 / MRSA, strain MRSA 15): 0.06 µg/mL (≈ 0.116 µM)
MIC (ATCC 29213 / MRSA, strain MRSA 16): 0.06 µg/mL (≈ 0.116 µM)
MIC (ATCC 29213 / MRSA, strain MRSA 17): 0.03 µg/mL (≈ 0.0579 µM)
MIC (ATCC 29213 / MRSA, strain MRSA 18): 0.06 µg/mL (≈ 0.116 µM)
MIC (ATCC 29213 / MRSA, strain MRSA 19): 0.03 µg/mL (≈ 0.0579 µM)
MIC (ATCC 29213 / MRSA, strain MRSA 20): 0.06 µg/mL (≈ 0.116 µM)
MIC (ATCC 29213 / MRSA, strain MRSA 21): 0.125 µg/mL (≈ 0.241 µM)
MIC (ATCC 29213 / MRSA, strain MRSA 22): 0.06 µg/mL (≈ 0.116 µM)
MIC (ATCC 29213 / MRSA, strain MRSA 23): 0.06 µg/mL (≈ 0.116 µM)
MIC (ATCC 29213 / MRSA, strain MRSA 24): 0.06 µg/mL (≈ 0.116 µM)
MIC (ATCC 29213 / MRSA, strain MRSA 25): 0.06 µg/mL (≈ 0.116 µM)
MIC (ATCC 29213 / MRSA, strain MRSA 26): 0.06 µg/mL (≈ 0.116 µM)
MIC (ATCC 29213 / MRSA, strain MRSA 27): 0.06 µg/mL (≈ 0.116 µM)
MIC (ATCC 29213 / MRSA, strain MRSA 27b): 0.02 µg/mL (≈ 0.0386 µM)
MIC (ATCC 29213 / MRSA, strain MRSA 28): 0.03 µg/mL (≈ 0.0579 µM)
MIC (ATCC 29213 / MRSA, strain MRSA 29): 0.06 µg/mL (≈ 0.116 µM)
MIC (ATCC 29213 / MRSA, strain MRSA 30): 0.03 µg/mL (≈ 0.0579 µM)
MIC (ATCC 29213 / MRSA, strain MRSA 31): 16 µg/mL (≈ 30.9 µM)
MIC (ATCC 29213 / MRSA, strain MRSA 32): 0.06 µg/mL (≈ 0.116 µM)
MIC (ATCC 29213 / MRSA, strain MRSA 33): 0.06 µg/mL (≈ 0.116 µM)
MIC (ATCC 29213 / MRSA, strain MRSA 34): 0.06 µg/mL (≈ 0.116 µM)
MIC (ATCC 29213 / MRSA, strain MRSA 35): 0.03 µg/mL (≈ 0.0579 µM)
MIC (ATCC 29213 / MRSA, strain MRSA 36): 0.06 µg/mL (≈ 0.116 µM)
MIC (ATCC 29213 / MRSA, strain MRSA 37): 0.06 µg/mL (≈ 0.116 µM)
MIC (ATCC 29213 / MRSA, strain MRSA 38): 0.06 µg/mL (≈ 0.116 µM)
MIC (ATCC 29213 / MRSA, strain MRSA 39): 0.06 µg/mL (≈ 0.116 µM)
MIC (ATCC 29213 / MRSA, strain MRSA 40): 0.03 µg/mL (≈ 0.0579 µM)
MIC (ATCC 29213 / MRSA, strain MRSA 41): 0.02 µg/mL (≈ 0.0386 µM)
MIC (ATCC 29213 / MRSA, strain MRSA 42): 0.06 µg/mL (≈ 0.116 µM)
MIC (ATCC 29213 / MRSA, strain MRSA 43): 0.06 µg/mL (≈ 0.116 µM)
MIC (ATCC 29213 / MRSA, strain MRSA 44): 0.02 µg/mL (≈ 0.0386 µM)
MIC (ATCC 29213 / MRSA, strain MRSA 45): 0.02 µg/mL (≈ 0.0386 µM)
MIC (ATCC 29213 / MRSA, strain MRSA 46): 0.02 µg/mL (≈ 0.0386 µM)
MIC (ATCC 29213 / MRSA, strain MRSA 47): 0.02 µg/mL (≈ 0.0386 µM)
MIC (ATCC 29213 / MRSA, strain MRSA 48): 0.02 µg/mL (≈ 0.0386 µM)
MIC (ATCC 29213 / MRSA, strain MRSA 49): 0.02 µg/mL (≈ 0.0386 µM)
MIC (ATCC 29213 / MRSA, strain MRSA 50): 0.02 µg/mL (≈ 0.0386 µM)
MIC (ATCC 29213 / MRSA, strain MRSA 51): 0.03 µg/mL (≈ 0.0579 µM)
MIC (ATCC 29213 / MRSA, strain MRSA 52): 0.02 µg/mL (≈ 0.0386 µM)
MIC (ATCC 29213 / MRSA, strain MRSA 53): 0.03 µg/mL (≈ 0.0579 µM)
MIC (ATCC 29213 / MRSA, strain MRSA 54): 0.03 µg/mL (≈ 0.0579 µM)
MIC (ATCC 29213 / MRSA, strain MRSA 55): 0.02 µg/mL (≈ 0.0386 µM)
MIC (ATCC 29213 / MRSA, strain MRSA 56): < 0.01 µg/mL
MIC (ATCC 29213 / MRSA, strain MRSA 57): 0.02 µg/mL (≈ 0.0386 µM)
MIC (ATCC 29213 / MRSA, strain MRSA 58): 0.02 µg/mL (≈ 0.0386 µM)
MIC (ATCC 29213 / MRSA, strain MRSA 59): 0.02 µg/mL (≈ 0.0386 µM)
MIC (ATCC 29213 / MRSA, strain MRSA 60): 0.02 µg/mL (≈ 0.0386 µM)
MIC (ATCC 29213 / MRSA, strain MRSA 61): 0.02 µg/mL (≈ 0.0386 µM)
MIC (ATCC 29213 / MRSA, strain MRSA 62): 0.02 µg/mL (≈ 0.0386 µM)
MIC (ATCC 29213 / MRSA, strain MRSA 63): 0.02 µg/mL (≈ 0.0386 µM)
MIC (ATCC 29213 / MRSA, strain MRSA 64): 0.02 µg/mL (≈ 0.0386 µM)
MIC (ATCC 29213 / MRSA, strain MRSA 65): 0.02 µg/mL (≈ 0.0386 µM)
MIC (ATCC 29213 / MRSA, strain MRSA 66): 0.02 µg/mL (≈ 0.0386 µM)
MIC (ATCC 29213 / MRSA, strain MRSA 67): 0.02 µg/mL (≈ 0.0386 µM)
MIC (ATCC 29213 / MRSA, strain MRSA 68): 0.02 µg/mL (≈ 0.0386 µM)
MIC (ATCC 29213 / MRSA, strain MRSA 69): < 0.01 µg/mL
MIC (ATCC 29213 / MRSA, strain MRSA 70): 0.02 µg/mL (≈ 0.0386 µM)
MIC (ATCC 29213 / MRSA, strain MRSA 71): < 0.01 µg/mL
MIC (ATCC 29213 / MRSA, strain MRSA 72): 0.03 µg/mL (≈ 0.0579 µM)
MIC (ATCC 29213 / MRSA, strain MRSA 73): 0.03 µg/mL (≈ 0.0579 µM)
MIC (ATCC 29213 / MRSA, strain MRSA 74): 0.03 µg/mL (≈ 0.0579 µM)
MIC (ATCC 29213 / MRSA, strain MRSA 75): 0.03 µg/mL (≈ 0.0579 µM)
MIC (ATCC 29213 / MRSA, strain MRSA 76): 0.03 µg/mL (≈ 0.0579 µM)
MIC (ATCC 29213 / MRSA, strain MRSA 77): 0.03 µg/mL (≈ 0.0579 µM)
MIC (ATCC 29213 / MRSA, strain MRSA 78): 0.03 µg/mL (≈ 0.0579 µM)
MIC (ATCC 29213 / MRSA, strain MRSA 79): < 0.01 µg/mL
MIC (ATCC 29213 / MRSA, strain MRSA 80): 0.02 µg/mL (≈ 0.0386 µM)
MIC (ATCC 29213 / MRSA, strain MRSA 81): 0.03 µg/mL (≈ 0.0579 µM)
MIC (ATCC 29213 / MRSA, strain MRSA 82): 0.03 µg/mL (≈ 0.0579 µM)
MIC (ATCC 29213 / MRSA, strain MRSA 83): 0.03 µg/mL (≈ 0.0579 µM)
MIC (ATCC 29213 / MRSA, strain MRSA 84): 0.03 µg/mL (≈ 0.0579 µM)
MIC (ATCC 29213 / MRSA, strain MRSA 85): 0.03 µg/mL (≈ 0.0579 µM)
MIC (ATCC 29213 / MRSA, strain MRSA 86): 0.03 µg/mL (≈ 0.0579 µM)
MIC (ATCC 29213 / MRSA, strain MRSA 87): 0.02 µg/mL (≈ 0.0386 µM)
MIC (ATCC 29213 / MRSA, strain MRSA 88): 0.03 µg/mL (≈ 0.0579 µM)
MIC (ATCC 29213 / MRSA, strain MRSA 89): 0.02 µg/mL (≈ 0.0386 µM)
MIC (ATCC 29213 / MRSA, strain MRSA 90): 0.06 µg/mL (≈ 0.116 µM)
MIC (ATCC 29213 / MRSA, strain MRSA 91): 0.06 µg/mL (≈ 0.116 µM)
MIC (ATCC 29213 / MRSA, strain MRSA 92): 0.06 µg/mL (≈ 0.116 µM)
MIC (ATCC 29213 / MRSA, strain MRSA 93): 0.02 µg/mL (≈ 0.0386 µM)
MIC (ATCC 29213 / MRSA, strain MRSA 94): 0.03 µg/mL (≈ 0.0579 µM)
MIC (ATCC 29213 / MRSA, strain MRSA 95): 0.03 µg/mL (≈ 0.0579 µM)
MIC (ATCC 29213 / MRSA, strain MRSA 96): 0.03 µg/mL (≈ 0.0579 µM)
MIC (ATCC 29213 / MRSA, strain MRSA 97): 0.03 µg/mL (≈ 0.0579 µM)
MIC (ATCC 29213 / MRSA, strain MRSA 98): 0.03 µg/mL (≈ 0.0579 µM)
MIC (ATCC 29213 / MRSA, strain MRSA 99): 0.03 µg/mL (≈ 0.0579 µM)
MIC (ATCC 29213 / MRSA, strain MRSA 100): 1 µg/mL (≈ 1.93 µM)
MIC (ATCC 29213 / MRSA, strain MRSA 101): 0.03 µg/mL (≈ 0.0579 µM)
MIC (ATCC 29213 / MRSA, strain MRSA 102): 0.03 µg/mL (≈ 0.0579 µM)
MIC (ATCC 29213 / MRSA, strain MRSA 103): 0.03 µg/mL (≈ 0.0579 µM)
MIC (ATCC 29213 / MRSA, strain MRSA 104): 0.03 µg/mL (≈ 0.0579 µM)
MIC (ATCC 29213 / MRSA, strain MRSA 105): 0.03 µg/mL (≈ 0.0579 µM)
MIC (ATCC 29213 / MRSA, strain MRSA 106): 0.06 µg/mL (≈ 0.116 µM)
MIC (ATCC 29213 / MRSA, strain MRSA 107): 0.06 µg/mL (≈ 0.116 µM)
MIC (ATCC 29213 / MRSA, strain MRSA 108): 0.03 µg/mL (≈ 0.0579 µM)
MIC (ATCC 29213 / MRSA, strain MRSA 109): 0.03 µg/mL (≈ 0.0579 µM)
MIC (ATCC 29213 / MRSA, strain MRSA 110): 0.03 µg/mL (≈ 0.0579 µM)
MIC (ATCC 29213 / MRSA, strain MRSA 111): 0.03 µg/mL (≈ 0.0579 µM)
MIC (ATCC 29213 / MRSA, strain MRSA 112): 0.03 µg/mL (≈ 0.0579 µM)
MIC (ATCC 29213 / MRSA, strain MRSA 113): 0.03 µg/mL (≈ 0.0579 µM)
MIC (ATCC 29213 / MSSA, strain MSSA 01): 0.03 µg/mL (≈ 0.0579 µM)
MIC (ATCC 29213 / MSSA, strain MSSA 02): 0.03 µg/mL (≈ 0.0579 µM)
MIC (ATCC 29213 / NEWMAN, strain Newman): 0.03 µg/mL (≈ 0.0579 µM)
